The record followed here is publication doi:10.1101/2022.04.05.487228v1 (biorxiv, 2022).

For this experiment, the target named is bovine rod opsin (unliganded, in ROS membranes) (Bos taurus, UniProt P02699). The experiment in a line: intrinsic Trp fluorescence quenching at […] nm. Format: binding.
Chain of bovine rod opsin (unliganded, in ROS membranes) (P02699 whole entry): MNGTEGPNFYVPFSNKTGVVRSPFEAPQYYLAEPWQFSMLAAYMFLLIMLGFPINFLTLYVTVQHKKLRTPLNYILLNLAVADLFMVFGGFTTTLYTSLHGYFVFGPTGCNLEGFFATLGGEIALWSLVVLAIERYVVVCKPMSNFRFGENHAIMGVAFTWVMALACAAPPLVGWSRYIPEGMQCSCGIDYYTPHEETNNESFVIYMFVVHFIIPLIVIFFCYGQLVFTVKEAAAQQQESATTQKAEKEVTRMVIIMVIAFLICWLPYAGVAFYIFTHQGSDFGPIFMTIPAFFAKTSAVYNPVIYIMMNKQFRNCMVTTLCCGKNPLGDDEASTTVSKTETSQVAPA
What is called EC50 is the concentration that produces a half-maximal response. The low end stands for higher potency in that assay, the high end for lower potency in that assay. Take `Cc1cc(=O)oc2cc(OC(C(=O)c3ccccc3)c3ccccc3)ccc12` (stereo not shown) [CR1]: the EC50 came to 275 ± 26 nM.

`Cc1c(OCc2ccc(C(=O)O)cc2)ccc2c3c(c(=O)oc12)CCC3` [CR2] gave an EC50 of 375 ± 21 nM. This EC50 and that of the compound before are within 1.5-fold of each other.

Compound `Cc1ccc(C(=O)Oc2ccc3c4c(c(=O)oc3c2)CCCC4)cc1` [CR3] displayed a 50% effective concentration (EC50) of 207 ± 46 nM.

As for `Cc1c(OC(C)C(=O)OCc2ccccc2)ccc2c3c(c(=O)oc12)CCC3` (stereo not shown) [CR4], a half-maximal response (EC50) required 171 ± 23 nM.
